The target of this test is T1, MAP2K2 (MEK2) (Homo sapiens, UniProt P36507).
T1 construct: purchased Thermo Fisher Scientific (Life Technologies) SelectScreen
Briefly: SelectScreen Z'LYTE. The test is classed as biochemical. As to conditions: ATP 100 µM. An outline of the steps: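 NU5455 was profiled across the SelectScreen Broad panel of kinase activity and binding assays. Z'LYTE reactions such as CSF1R ran at apparent Km ATP, while the Adapta CAMK1 assay used ATP listed as 10. Values are given as percent.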

T1 sequence (P36507 whole entry): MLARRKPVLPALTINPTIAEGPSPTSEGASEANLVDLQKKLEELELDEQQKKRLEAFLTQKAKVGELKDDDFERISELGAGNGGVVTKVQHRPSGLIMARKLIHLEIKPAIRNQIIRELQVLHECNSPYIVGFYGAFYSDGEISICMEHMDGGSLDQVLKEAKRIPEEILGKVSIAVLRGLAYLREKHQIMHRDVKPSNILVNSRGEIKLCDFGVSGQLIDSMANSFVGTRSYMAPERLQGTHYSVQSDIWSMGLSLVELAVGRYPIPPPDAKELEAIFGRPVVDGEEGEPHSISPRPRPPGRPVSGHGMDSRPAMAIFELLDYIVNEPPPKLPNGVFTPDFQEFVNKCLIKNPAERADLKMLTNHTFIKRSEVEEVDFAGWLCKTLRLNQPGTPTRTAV

A word on the inhibition: it is the share of the control response that was lost under treatment. For `CN(C(=O)CN1CCOCC1)c1ccc2sc3c(-c4cccc5c(=O)cc(N6CC7CCC(C6)O7)oc45)cccc3c2c1` [NU5455], the inhibition at 1 µM was 3.9%.

Values taken from PMC6934184, “Selective DNA-PKcs inhibition extends the therapeutic index of localized radiotherapy and chemotherapy” (The Journal of Clinical Investigation, 2019).
